Laboratory results published in patent US20040023884A1, “Biologically active peptides from functional domains of bactericidal/permeability-increasing protein and uses thereof” (priority 1993, published 2004).
Square brackets hold non-standard residues; d marks the D form. Ends that are not written are not given here. Peptide text beside a SMILES is read from it. 1Nal = N[C@@H](Cc1cccc2ccccc12)C(=O)O

How the values were obtained:
Candida albicans = type: cell-based
RAW 264.7 cells = assay: LPS neutralization cellular proliferation assay, RAW 264.7 cells; type: cell-based, mouse
Protocol: In this assay, mouse RAW 264.7 cells (ATCC Accession No. T1B71), maintained in RPMI 1640 media (GIBCO), supplemented with 10 mM HEPES buffer (pH 7.4), 2 mM L-glutamine, penicillin (100U/mL), streptomcin (100 μg/mL), 0.075% sodium bicarbonate, […] 2-mercaptoethanol and 10% fetal bovine serum (Hyclone, Inc., Logan, Utah), were first induced by incubation in the presence of 50U/mL recombinant mouse y-interferon (Genzyme, Cambridge, Mass.) for 24 h prior to assay. Induced cells were then mechanically collected and centrifuged at 500×g at 4° C. and then resuspended in 50 mL RPMI 1640 media (without supplements), re-centrifuged and again resuspended in RPMI 1640 media (without supplements). The cells were counted and their concentration adjusted to 2×10^5 cells/mL and 100 μL aliquots were added to each well of a 96-well microtitre plate. The cells were then incubated for about 15 hours with E. coli O113 LPS (Control Standard. Assoc. of Cape Cod. Woods Hole, Mass.), which was added in 100 μL/well aliquots at a concentration of […] in serum-free RPMI 1640 media (this concentration being the result of titration experiments in which LPS concentration was varied between 50 pg/mL and 100 ng/mL). This incubation was performed in the absence or presence of BPI functional domain peptides in varying concentrations between 25 ng/mL and 50 μg/mL. Recombinant human BPI was used as a positive control at a concentration of 1 μg/mL. Cell proliferation was quantitatively measured by the addition of 1 μCi/well [^3H]-thymidine 5 hours after the time of initiation of the assay. After the 15-hour incubation, labeled cells were harvested onto glass fiber filters with a cell harvester (Inotech Biosystems, EQ-384, Sample Processing and Filter Counting System, Lansing, Mich.).

[1] = test system: rough mutant E. coli J5 bacteria; assay: Radial diffusion bactericidal assay, E. coli J5; type: cell-based; settings: radial diffusion; PROBIT analysis; E. coli J5 (rough)
Outline: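 Log-phase bacteria (3 h at 37 °C in tryptic soy broth), washed in 10 mM sodium phosphate pH 7.4, were embedded at 4×10^6 CFU/mL in underlayer agarose. BPI proteolytic fragments (5 or 10 μL) went into 3 mm wells for 3 h at 37 °C, then agarose overlay and overnight 37 °C growth. Clear zones were measured by micrometer.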

Staphylococcus aureus = assay: Radial diffusion bactericidal assay, Staphylococcus aureus; type: cell-based; settings: radial diffusion; PROBIT analysis; S. aureus
[2] = test system: E. coli 0111:B4 (smooth) bacteria; assay: Radial diffusion bactericidal assay, E. coli 0111:B4; type: cell-based; settings: radial diffusion; PROBIT analysis; E. coli O111:B4 (smooth)
C. albicans = assay: Radial diffusion fungicidal assay, Candida albicans; type: cell-based; settings: radial diffusion
[3] = 3H-heparin binding assay (affinity and capacity); settings: for Heparin Capacity: heparin bound at saturation; for Kd: read-out: Heparin Affinity
Outline: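 Bound 3H-heparin was counted by liquid scintillation after 1 h incubation at 4 °C with fragments immobilised on PVDF-bottomed wells, then washing in blocking buffer. Signal was corrected for BSA-related background, and varying amounts of rBPI23 were used as positive control.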

Row | Molecule | MIC C. alb (Candida albicans) | EC50 (peptide concentration at which the growth inhibitory effect of LPS was reversed by 50%) (RAW 264.7 cells) | IC50 (peptide concentration at which RAW cell growth was inhibited by 50%) (RAW 264.7 cells) | pmol added to well to achieve a 30 mm^2 bactericidal zone, E. coli J5 [1] | pmol added to well to achieve a 30 mm^2 bactericidal zone, S. aureus (Staphylococcus aureus) | pmol added to well to achieve a 30 mm^2 bactericidal zone, E. coli O111:B4 [2] | C. albicans: pmol required for 30 mm^2 zone (C. albicans) | Heparin Capacity [3] | Kd [3]
1 | CC(C)C[C@H](NC(=O)[C@H](Cc1ccccc1)NC(=O)[C@H](CCCNC(=N)N)NC(=O)[C@H](Cc1cccc2ccccc12)NC(=O)[C@H](Cc1cccc2ccccc12)NC(=O)[C@H](C)NC(=O)[C@H](CCCCN)NC(=O)[C@H](Cc1c[nH]c2ccccc12)NC(=O)[C@H](CCCCN)NC(=O)[C@H](CCCCN)NC(=O)[C@H](CC(C)C)NC(=O)[C@H](Cc1ccccc1)NC(=O)[C@H](CCCNC(=N)N)NC(=O)[C@H](Cc1cccc2ccccc12)NC(=O)[C@H](Cc1cccc2ccccc12)NC(=O)[C@H](C)NC(=O)[C@H](CCCCN)NC(=O)[C@H](Cc1c[nH]c2ccccc12)NC(=O)[C@H](CCCCN)NC(=O)[C@H](CCCCN)NC(=O)[C@H](CC(C)C)NC(=O)[C@H](Cc1ccccc1)NC(=O)[C@H](CCCNC(=N)N)NC(=O)[C@H](Cc1cccc2ccccc12)NC(=O)[C@H](Cc1cccc2ccccc12)NC(=O)[C@H](C)NC(=O)[C@H](CCCCN)NC(=O)[C@H](Cc1c[nH]c2ccccc12)NC(=O)[C@@H](N)CCCCN)C(=O)N[C@@H](CCCCN)C(=O)O [BPI.157] (H-KWKA[1Nal][1Nal]RFLKKWKA[1Nal][1Nal]RFLKKWKA[1Nal][1Nal]RFLK-OH; N-terminus and C-terminus assumed) | >100.00 µg/mL | comparable to BPI.29 | lower IC5 |  |  |  |  |  | 
2 | CKSKVGWLIQLFHKKC [BPI.137] |  |  |  | 1,390.00 pmol | b (no detectable activity up to 5 μg/well) | 87,980.00 pmol | >2285.73 pmol |  | 
3 | KSKVFWLIQLFHKK [BPI.95] |  |  |  | 330.88 pmol | b (no detectable activity up to 5 μg/well) | 2,809.70 pmol | >1397.64 pmol | 224.5 ng | 551 nM
4 | KSKVGWLIQLFFKK [BPI.94] |  |  |  | 922.54 pmol | 9,446.60 pmol | 3,658.80 pmol | >922.54 pmol | 216.1 ng | 407 nM
5 | KSKVGWLIQLFLKK [BPI.87] |  |  |  | 188.72 pmol | 868,991.70 pmol | 23,949.00 pmol | >1535.78 pmol | 280.0 ng | 575 nM
6 | KWAFAKKQKKRLKRQWLKKF [BPI.150] |  |  |  | 220.00 pmol | b (no detectable activity up to 5 μg/well) | 3,610.00 pmol | >2380.67 pmol |  | 
7 | KWKAAARFLKKSKVGWLIQLFHKK [BPI.145] |  |  |  | 250.00 pmol | b (no detectable activity up to 5 μg/well) | 9,561.00 pmol | >1886.58 pmol |  | 
